Test results from patent US20260176289A1, “SMALL MOLECULE INHIBITORS OF KRAS PROTEINS” (Merck Sharp & Dohme LLC, priority 2022, published 2026).
Like-named read-outs stand apart in the source and are kept apart here.

Key:
KRAS-WT = KRAS-WT (Homo sapiens, UniProt P01116); experiment: SOS-catalyzed nucleotide exchange assay (Procedure A, TR-FRET), KRAS-WT; type: biochemical; details: nucleotide exchange, read-out: KRAS WT GNE IC50
Procedure, shortened: (§1)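 Compounds (10-point, 3-fold) were preincubated 60 min at room temperature with a biotinylated RAS/Bodipy-GDP/Tb-streptavidin TR-FRET complex. Exchange was started with human SOS plus 3 mM GTP. RAS/SOS: G12C 3/40 nM, WT 1/40 nM, NRAS 1.25/40 nM (60 min); G12V 1.25/160 nM (90 min). The 520/495 ratio was fit four-parameter.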

SW620 cells = experiment: Cellular phospho-ERK assay, SW620 cells (homozygous KRAS-G12V); type: cell-based; details: Homo sapiens, read-out: SW620 pERK IC50
Procedure, shortened: (§2)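 Cells were seeded overnight, then treated 2 h at 37° C with compound in a 10-point, 1:3 titration from 30 μM top final concentration. Lysates were assayed by AlphaLISA SureFire Ultra for p-ERK and total ERK. IC50 came from a 4-parameter logistic fit of the p-ERK/total ERK ratio.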

MKN-1 cells = experiment: Cellular phospho-ERK assay, MKN-1 cells (amplified wild-type KRAS); type: cell-based; details: Homo sapiens, read-out: MKN1 pERK IC50
Procedure, shortened: as §2

AsPC-1 cells = experiment: Cellular phospho-ERK assay, AsPC-1 cells (homozygous KRAS-G12D); type: cell-based; details: Homo sapiens, ASPC1, 2 h, read-out: AsPC1 pERK IC50
Procedure, shortened: as §2

KRAS-G12D = KRAS-G12D (Homo sapiens, UniProt P01116, G12D); experiment: SOS-catalyzed nucleotide exchange assay (Procedure A, TR-FRET), KRAS-G12D; type: biochemical; details: nucleotide exchange, read-out: KRAS G12D GNE IC50
KRAS-G12D, sequence (P01116 with tags, fused parts or gaps isoform P01116-2 G12D): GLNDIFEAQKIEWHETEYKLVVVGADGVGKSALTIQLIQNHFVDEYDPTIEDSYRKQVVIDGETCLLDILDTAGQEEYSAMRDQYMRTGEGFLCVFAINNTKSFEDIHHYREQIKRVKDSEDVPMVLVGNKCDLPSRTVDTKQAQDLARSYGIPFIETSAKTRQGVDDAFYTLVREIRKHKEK
Procedure, shortened: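 Signal ratio (520/495 nm, excitation 340 nm) reports Bodipy-GDP retention on biotinylated RAS after SOS-catalyzed exchange with 3 mM GTP. SOS was 40 nM, except 160 nM for G12V. Room-temperature exchange lasted 60 min (90 min for G12V), following a 60 min compound preincubation.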

KRAS-G12V = KRAS-G12V (Homo sapiens, UniProt P01116, G12V); experiment: SOS-catalyzed nucleotide exchange assay (Procedure A, TR-FRET), KRAS-G12V; type: biochemical; details: nucleotide exchange, read-out: KRAS G12V GNE IC50
KRAS-G12V, sequence (P01116 with tags, fused parts or gaps isoform P01116-2 G12V): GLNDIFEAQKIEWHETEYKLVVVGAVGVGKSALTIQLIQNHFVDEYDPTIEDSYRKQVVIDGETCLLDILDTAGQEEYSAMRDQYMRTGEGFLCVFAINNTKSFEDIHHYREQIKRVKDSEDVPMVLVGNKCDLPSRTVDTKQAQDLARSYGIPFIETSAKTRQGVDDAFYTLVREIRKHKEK
Procedure, shortened: as §1

[1] = amplified wild-type KRAS, 2 hours
[2] = SW-620, 2 hours compound incubation

KRAS-WT, sequence (P01116 with tags, fused parts or gaps isoform P01116-2): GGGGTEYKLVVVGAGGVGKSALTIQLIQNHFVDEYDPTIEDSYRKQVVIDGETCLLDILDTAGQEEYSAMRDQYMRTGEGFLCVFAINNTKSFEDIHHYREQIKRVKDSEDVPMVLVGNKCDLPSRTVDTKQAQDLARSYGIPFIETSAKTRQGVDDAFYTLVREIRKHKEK

Row | Structure (SMILES) | IC50 (KRAS-WT) [nM] | IC50 (SW620 cells; SW-620, KRAS-G12V, 2 hours) [nM] | IC50 (MKN-1 cells; [1]) [nM] | IC50 (AsPC-1 cells; KRAS-G12D, 2 hours) [nM] | IC50 (KRAS-G12D) [nM] | IC50 (KRAS-G12V) [nM] | IC50 (SW620 cells; [2]) [nM] | IC50 (MKN-1 cells; 2 hours compound incubation) [nM] | IC50 (AsPC-1 cells; 2 hours compound incubation) [nM]
1 | C[C@@]1(O)COCCN(c2nc(OC[C@@]34CCCN3C/C(=C\F)C4)nc3sc4c(-c5c(C6CC6)c(C(F)(F)F)cc6[nH]ncc56)nccc4c23)C1 [Ex-87, (6S)-4-(8-(5-cyclopropyl-6-(trifluoromethyl)-1H-indazol-4-yl)-2-(((S,Z)-2-(fluoromethylene)tetrahy-dro-1H-pyrrolizin-7a(5H)-yl)methoxy)pyrido[4′,3′:4,5]thi-eno[2,3-d]pyrimidin-4-yl)-6-methyl-1,4-oxazepan-6-ol] | 80 | 96.6 | 109 | 176 | 41.6 | 31.4 |  |  | 
2 | CO[C@@H]1CN2CCC[C@@]2(COc2nc(N3CCOC[C@@](C)(O)C3)c3c(n2)sc2c(-c4c(C5CC5)c(Cl)cc5[nH]ncc45)nccc23)C1 [Ex-228, (6S)-4-(8-(6-chloro-5-cyclopropyl-1H-indazol-4-yl)-2-(((25,7aS)-2-meth-oxytetrahydro-1H-pyrrolizin-7a(5H)-yl)methoxy)pyrido [4′,3′:4,5]thieno[2,3-d]pyrimidin-4-yl)-6-methyl-1,4-oxaze-pan-6-ol] | 53 |  |  |  | 16 | 38.2 | 133 | 180 | 379
3 | C[C@@]1(O)COCCN(c2nc(OC[C@@]34CCCN3C[C@H](F)C4)nc3c(F)c4c(-c5c(C6CC6)c(Cl)cc6[nH]ncc56)nccn4c23)C1 [Ex-305, (S)-4-(9-(6-chloro-5-cyclopropyl-1H-indazol-4-yl)-10-fluoro-2-(((2R,7aS)-2-fluorotetrahydro-1H-pyrrolizin-7a(5H)-yl)methoxy)pyrazino[1′,2′:1,5]pyrrolo[3,2-d]pyrimidin-4-yl)-6-methyl-1,4-oxazepan-6-ol] | 37 | 54.7 | 93 | 212 | 11.6 | 23.8 |  |  | 
4 | C[C@@]1(O)COCCN(c2nc(OC[C@@]34CCCN3C[C@H](F)C4)nc3sc4c(-c5c(C6(F)CC6)c(C(F)(F)F)cc6[nH]ncc56)nccc4c23)C1 [Ex-55, (6S)-4-(8-(5-(1-fluorocyclopropyl)-6-(trifluoromethyl)-1H-indazol-4-yl)-2-(((2R,7aS)-2-fluorotetrahydro-1H-pyrrolizin-7a(5H)-yl)methoxy)pyrido[4′,3′:4,5]thi-eno[2,3-d]pyrimidin-4-yl)-6-methyl-1,4-oxazepan-6-ol] | 26.4 | 45.9 | 45 | 107 | 9.34 | 18.2 |  |  | 
5 | C#CC1=CCCc2cc3[nH]ncc3c(-c3nccc4c3sc3nc(OC[C@@]56CCCN5C[C@H](F)C6)nc(N5CCOC[C@@](C)(O)C5)c34)c21 [Ex-173, (6S)-4-(8-(5-ethynyl-7,8-dihydro-1H-benzo[f]indazol-4-yl)-2-(((2R,7aS)-2-fluorotetrahydro-1H-pyrrolizin-7a(5H)-yl)methoxy)pyrido[4′,3′:4,5]thieno[2,3-d]pyrimidin-4-yl)-6-methyl-1,4-oxazepan-6-ol] | 38.2 |  |  |  | 18.9 | 50.1 | 61.1 | 56.9 | 161
6 | Cc1cc2[nH]ncc2c(-c2nccc3c2sc2nc(OC[C@@]45CCCN4C[C@H](F)C5)nc(N4CCOC[C@@](C)(O)C4)c23)c1C1CC1(F)F (stereo partly drawn) [Ex-63, (6S)-4-(8-(5-(2,2-difluorocyclopropyl)-6-methyl-1H-indazol-4-yl)-2-(((2R,7aS)-2-fluorotetrahydro-1H-pyrrolizin-7a(5H)-yl)methoxy)pyrido[4′,3′:4,5]thi-eno[2,3-d]pyrimidin-4-yl)-6-methyl-1,4-oxazepan-6-ol] | 55.2 | 121 | 114 | 185 | 19.6 | 39.3 |  |  | 
7 | C[C@@]1(O)COCCN(c2nc(OC[C@@]34CCCN3C[C@H](F)C4)nc3sc4c(-c5c6cn[nH]c6cc6ccc(F)c(Cl)c56)nccc4c23)C1 [Ex-162] | 43.6 |  |  |  | 19.8 | 47.5 | 48 | 106 | 133
8 | C[C@@]1(O)COCCN(c2nc(OC[C@@]34CCN3C[C@H](F)C4)nc3sc4c(-c5c(C6CC6)c(Cl)cc6[nH]ncc56)nccc4c23)C1 (single isomer, unassigned) [Ex-221] | 22.8 |  |  |  | 5.55 | 21.2 | 79.4 | 80.7 | 175
9 | C[C@@]1(O)COCCN(c2nc(OC[C@]34C[C@@H](F)CN3CC3(CC3)C4)nc3sc4c(-c5c(C6CC6)c(Cl)cc6[nH]ncc56)nccc4c23)C1 [Ex-220, (6S)-4-(8-(6-chloro-5-cyclopropyl-1H-indazol-4-yl)-2-(((6R,7a′S)-6′-fluorodihydro-1H, 3H-spiro[cyclopro-pane-1,2′-pyrrol-izin]7a′(5′H)-yl)-methoxy)pyrido [4′,3′:4,5]thieno[2,3-d]pyrimidin-4-yl)-6-methyl-1,4-oxaze-pan-6-ol] | 72.3 |  |  |  | 27.8 | 70.6 | 130 | 171 | 176
10 | C[C@@]1(O)COCCN(c2nc(OC[C@@]34CCCN3C[C@H](F)C4)nc3sc4c(-c5c(C6(F)CC6)c(C(F)(F)F)cc6[nH]ncc56)nncc4c23)C1 [Ex-283, (6S)-4-(8-(5-(1-fluorocyclopropyl)-6-(trifluoromethyl)-1H-indazol-4-yl)-2-(((2R,7aS)-2-fluorotetrahydro-1H-pyrrolizin-7a(5H)-yl)methoxy)pyrimido [5′,4′:4,5]thieno[2,3-d]pyridazin-4-yl)-6-methyl-1,4-oxazepan-6-ol] | 14.5 | 41.5 | 77.4 | 244 | 5.26 | 15.4 |  |  | 
11 | CN1CCC[C@H]1COc1nc(N2CCOC[C@@](C)(O)C2)c2c(n1)sc1c(-c3c(C4CC4)c(Cl)cc4[nH]ncc34)nccc12 [Ex-80, (6S)-4-(8-(6-chloro-5-cyclopropyl-1H-indazol-4-yl)-2-(((S)-1-methylpyrrolidin-2-yl)methoxy)pyrido[4′,3′:4,5]thi-eno[2,3-d]pyrimidin-4-yl)-6-methy1-1,4-oxazepan-6-ol] | 89 | 131 | 143 | 200 | 32.7 | 42 |  |  | 
12 | Cc1cc2[nH]ncc2c(-c2nccc3c2sc2nc(OC[C@@]45CCCN4C[C@H](F)C5)nc(N4CCOC[C@@](C)(O)C4)c23)c1-c1ccc(F)o1 [Ex-72, (6S)-4-(8-(5-(5-fluorofuran-2-yl)-6-methyl-1H-indazol-4-yl)-2-(((2R,7aS)-2-fluorotetrahydro-1H-pyrrolizin-7a(5H)-yl)methoxy)pyrido[4′,3′:4,5]thi-eno[2,3-d]pyrimidin-4-yl)-6-methyl-1,4-oxazepan-6-ol] | 53.9 | 53.8 | 82.4 | 139 | 15 | 35.3 |  |  | 
13 | C[C@@]1(O)COCCN(c2nc(OC[C@@]34CCCN3C[C@H](F)C4)nc3sc4c(-c5c(C6=CCC6)c(Cl)cc6[nH]ncc56)nccc4c23)C1 [Ex-70, (6S)-4-(8-(6-chloro-5-(cyclobut-1-en-1-yl)-1H-indazol-4-yl)-2-(((2R,7aS)-2-fluorotetrahydro-1H-pyrrolizin-7a(5H)-yl)methoxy)pyrido[4′,3′:4,5]thi-eno[2,3-d]pyrimidin-4-yl)-6-methyl-1,4-oxazepan-6-ol] | 33.8 | 29.6 | 61.8 | 95.1 | 6.5 | 19.6 |  |  | 
14 | CC1(O)COCCN(c2nc(OCC3(CN4CC5C(F)C5C4)CC3(F)F)nc3sc4c(-c5c(C6CC6)c(Cl)cc6[nH]ncc56)nccc4c23)C1 [Ex-214, (6S)-4-(8-(6-chloro-5-cyclopropyl-1H-indazol-4-yl)-2-(((R)-2,2-difluoro-1-(((1R,5S,6R)-6-fluoro-3-azabicyclo [3.1.0]hexan-3-yl)-methyl)cycloprop-yl)methoxy)pyrido [4′,3′:4,5]thieno[2,3-d]pyrimidin-4-yl)-6-methyl-1,4-oxaze-pan-6-ol] | 498 |  |  |  | 62.8 | 243 | 107 | 171 | 136
